Test results as given in patent US10329542B2, “HBV RNAse H purification and enzyme inhibitors” (Saint Louis University, priority 2012, dated 2019).

Assays:
[1] = target: T1, HBV genotype D RNAseH (HRHPL) (Hepatitis B virus genotype D subtype ayw, UniProt P03156, INS679M); settings: Tavis et al., 2013; read-out: IC50 against the HBV RNAseH, previously reported; cited from earlier work
T1 construct: HRHPL contains HBV genotype D (Genbank V01460) polymerase residues 684-845; made in house; host or cells: E. coli BL21 codon+

HBV genotype A = experiment: Plus-polarity preferential real-time PCR of HBV DNA, Huh7 cells; assay type: cell-based, Hepatitis B virus
Experimental: Plus-polarity preferential quantitative TaqMan PCR for the HBV DNA was conducted employing forward primer […] (SEQ ID NO: 13), reverse primer […] (SEQ ID NO:14), and probe 5′-6Fam-[…]-Zen-[…]-IabkFQ-3′ (5′-6Fam-SEQ ID NO:15-Zen-SEQ ID NO: 16-IabkFQ-3′) (Integrated DNA Technologies). PCR was conducted on purified HBV capsid-derived nucleic acids for 40 cycles of 95° C. for 15 sec. and 65° C. for 1 min. employing the TaqMan universal PCR master mix (Applied Biosystems). Results were standardized against serial dilutions of cloned HBV DNA. The EC50 was estimated by linear regression of the real-time PCR data.
The HBV plus-polarity DNA strand was measured to quantify the effects of βTJ on HBV replication because plus-polarity DNA cannot be made without RNAseH activity. Real-time PCR primers flanking the gap in the HBV minus-polarity DNA were designed that preferentially measure plus-polarity DNA because amplification across the gap in the minus-polarity DNA is inefficient. […] Above 10 μM, βTJ suppressed HBV plus-polarity DNA levels to below the assay background of approximately 14% that was determined with the D702A RNAseH-deficient genome.

[2] = target: T2, chimeric HBV:HIV RNAseH HHC1 (Hepatitis B virus genotype D subtype ayw, UniProt P03156, DELINS787-795VNQIIEQLIVK/INS679M); experiment: Oligonucleotide-directed RNAseH cleavage assay, chimeric HHC1; assay type: biochemical; settings: read-out: Residual activity at 10 uM, HHC1
T2 construct: HHC1 is an HRHPL derivative; made in house; host or cells: E. coli BL21 codon+
Method in brief: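 Bacterially expressed C-terminal His-tagged HHC1 (HRHPL, HBV genotype D pol 684-845, with residues 800-808 swapped for HIV RNAseH helix D) extract mixed with internally 32P-labeled DRF+ RNA and oligonucleotide D2507- (D2526+ negative control), 42 °C, 90 min. Products resolved by 12% SDS-PAGE, autoradiographed and quantified; compounds added in DMSO, DMSO vehicle control.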

Huh7 cells = experiment: CytoTox-Glo membrane integrity assay in Huh7 cells; assay type: cell-based, human; settings: four days
Experimental: Toxicity of βTJ in Huh7 cells was determined with 3-(4,5-dimethylthiazol-2-yl)-5-β-carboxymethoxyphenyl)-2-(4-sulfophenyl)-2H-tetrazolium (MTS) assays that measures mitochondrial dysfunction employing the Cell Titre 96 aqueous nonradioactive cell proliferation assay (Promega), and with the CytoTox-Glo assay (Promega) that reflects cellular integrity. Huh7 and HepG2 cells (1×10^4) were plated in 96-well tissue culture plates, medium containing βTJ at the indicated concentrations was added the next day, the medium was replaced with fresh medium containing βTJ after two days, and after four days the MTS or CytoTox-Glo assays were conducted according to the manufacturer's instructions.

HIV-1 RNAseH = HIV-1 RNAseH (Human immunodeficiency virus type 1 group M subtype B, UniProt P04585); settings: read-out: IC50 against the HIV RNAseH; cited from earlier work
CEM-SS cells = settings: cited from earlier work
[3] = target: HCV RNA-directed RNA polymerase (Hepatitis C virus genotype 1a, UniProt P27958); experiment: Primed homopolymeric RNA (poly-G) synthesis assay; assay type: biochemical; settings: 10 μM
Experimental: FIGS. 9A-C. Specificity of anti-HBV RNAseH compounds. (FIG. 9A) Inhibition of HBV genotype D RNAseH by irrelevant compounds at 10 μM in the oligonucleotide-directed RNAseH assay. Compound #4 was employed as an example HBV RNAseH inhibitor. […] The ability of compounds #5, 6 and 8 to inhibit production of poly-G by the HCV RNA-directed RNA polymerase was measured in a primed homopolymeric RNA synthesis assay (Cao, et al., 2011. The compounds were employed at 10 μM. DMSO, vehicle control. (FIG. 9C) Dose-responsiveness of HBV RNAseH inhibition. The effects of compounds #6, 8, and 12 on the RNAseH activity of HRHPL (genotype D) were measured at concentrations ranging from 0.5 to 50 μM. The dose-response profile is plotted for compound #12.

T2 sequence (P03156 680-786, added parts left off, stated change not applied): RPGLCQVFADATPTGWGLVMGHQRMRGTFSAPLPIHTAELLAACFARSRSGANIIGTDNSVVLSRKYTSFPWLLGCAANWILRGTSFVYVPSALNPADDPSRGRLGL
Chain of HCV RNA-directed RNA polymerase (P27958 2421-3011): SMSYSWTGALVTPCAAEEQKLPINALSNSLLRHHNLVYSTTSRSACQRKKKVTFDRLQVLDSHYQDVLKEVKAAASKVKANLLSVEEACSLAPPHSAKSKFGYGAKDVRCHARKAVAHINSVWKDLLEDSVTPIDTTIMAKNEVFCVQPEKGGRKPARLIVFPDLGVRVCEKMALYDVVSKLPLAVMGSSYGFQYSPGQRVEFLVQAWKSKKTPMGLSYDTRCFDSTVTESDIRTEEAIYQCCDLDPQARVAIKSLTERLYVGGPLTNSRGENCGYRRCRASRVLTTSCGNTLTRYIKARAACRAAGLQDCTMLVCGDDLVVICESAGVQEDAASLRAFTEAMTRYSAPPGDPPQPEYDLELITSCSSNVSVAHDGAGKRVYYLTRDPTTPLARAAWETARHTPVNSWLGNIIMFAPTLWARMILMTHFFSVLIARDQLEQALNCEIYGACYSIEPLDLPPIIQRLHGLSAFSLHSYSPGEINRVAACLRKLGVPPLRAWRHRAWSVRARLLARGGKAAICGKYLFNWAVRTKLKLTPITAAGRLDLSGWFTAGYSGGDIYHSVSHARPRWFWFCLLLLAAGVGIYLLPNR
T1 sequence (P03156 680-832, added parts left off, stated change not applied): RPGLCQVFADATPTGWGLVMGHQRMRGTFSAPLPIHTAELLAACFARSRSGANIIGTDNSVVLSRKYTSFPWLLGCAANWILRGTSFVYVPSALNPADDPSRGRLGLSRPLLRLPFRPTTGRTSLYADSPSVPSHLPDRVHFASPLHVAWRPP

NCc1ccc(-c2ccc(Cc3cc(=O)n(O)c4ncccc34)cc2)cc1 [Compound 12, napthyridinone]
IC50 [1]: 2500 nM
Plus-strand DNA accumulation (HBV genotype A; 10 μM, data not shown): 7.3 % of the DMSO treated control

COc1cc2c(cc1Cc1cccc(Cl)c1F)c(=O)c(C(=O)O)cn2[C@H](CO)C(C)C [Compound 10, Elvitegravir, reference compound]
remaining activity at 10 µM [2]: 35 ± 7%

CC(C)c1ccc(O)c(=O)c(O)c1 [Compound 46, beta-thujaplicinol]
CC50 (Huh7 cells): > 150000 nM
IC50 (HIV-1 RNAseH): 200 to 300 nM
HBV plus-polarity DNA level (HBV genotype A; above 10 μM, assay background approximately 14%): < 14%
EC50 (HBV genotype A; read-out: 50% effective concentration (EC50), genotype A isolate in Huh7 cells): ~5000 nM
CC50 (CEM-SS cells): 2300 nM

Cc1c2cc(O)c(=O)cc-2oc2cc(O)c(O)cc12 [Compound 8]
Inhibition of poly-G production by HCV RNA polymerase [3]: do not significantly inhibit

Cc1nnc(C(=O)NC(C)(C)c2nc(C(=O)NCc3ccc(F)cc3)c(O)c(=O)n2C)o1 [Compound 11, Raltegravir, reference compound]
remaining activity at 10 µM [2]: 59 ± 23%
